This is an account of results in PubChem BioAssay AID489022 (Sanford-Burnham Center for Chemical Genomics, 2010).

The structures appear in SMILES notation. Calls of active or inactive are those of the source. How the calls were made is not given here.

The experiment deals with HEK-293T NF-kB luciferase reporter, luminescence counterscreen. The experiment can be described thus: NF-kB reporter suppression in HEK-293T cells – luminescence, B-cell screen hits, counter-screen for BCR NF-kB inhibitor project, dose response (AID 489022).
For the compound `COc1ccc(-c2noc(N3CCC(C(=O)Nc4ccc(OC)c(OC)c4)CC3)n2)cc1`, the IC50 (commonly the point on the concentration scale where inhibition reaches its midpoint) was > 80 µM (inactive).
`CC(C)C[C@@H](N)c1nnc(SCC(=O)c2ccc(Cl)cc2)o1`: the IC50 was 31.9 µM (inactive).
With `CCc1ccc2nc(Nc3nc(COC)cc(=O)[nH]3)nc(C)c2c1` the figure was 46.4 µM (inactive); with `Cc1ccc(NC(=O)O/N=C/c2c(C)nn(C(C)(C)C)c2C)cc1Cl`, less than 0.16 µM.
With `C=CCOc1ccc(/C=C2\SC(=S)N(CCC(=O)O)C2=O)cc1` the figure was 51.4 µM (inactive).
With `Cn1nc(-c2ccc(N3CCOCC3)c(NS(=O)(=O)c3ccccc3)c2)c2ccccc2c1=O` the figure was 36.9 µM (inactive).
`CCCCCCn1c(-c2ccco2)nc2oc3cc(OC)ccc3c(=O)c2c1=O`: the IC50 is > 80 µM (inactive).
To `O=C(Oc1cccc(/C=N/Nc2nc(N3CCOCC3)nc(N3CCOCC3)n2)c1)c1ccco1` belongs > 80 µM (inactive); to `Cc1ccoc1C(=O)Nc1ccc(CC(=O)O)cc1`, 14.2 µM; to `COc1ccc(-n2nnnc2S(=O)(=O)CC(=O)N2CCCCC2)cc1`, 16.9 µM.
To `C/C=C(/C)C(=O)OC1Cc2c(ccc3ccc(=O)oc23)OC1(C)C` (stereo unspecified) belongs 23.5 µM (inactive); to `CCc1ccc(/C=C2/SC(=S)N(CCC(=O)Nc3cccc(C(=O)O)c3)C2=O)cc1`, > 80 µM (inactive).
With `COc1cc(C[C@@H]2C(=O)OC[C@H]2Cc2ccc(OC)c(OC)c2)ccc1O` the figure was 0.66 µM; with `CC(=C\c1ccccc1)/C=C1/SC(=O)N(CCCC(=O)Nc2ccc(C(=O)O)cc2)C1=O`, > 80 µM (inactive).
On to `Cn1c(=O)cc(Nc2ccccc2)c2c(=O)n(-c3ccccc3)c(=O)n(-c3ccccc3)c21`, for which the IC50 is 79.1 µM (inactive).
With `O=c1c(C=NCCCO)c(-c2ccccc2)[nH]n1-c1nc2ccccc2s1` the figure was > 80 µM (inactive); with `CC(=O)Nc1ccc(Nc2nc(-c3sc(NC(C)=O)nc3C)cs2)cc1`, 47.1 µM (inactive).
With `Cc1[nH]c2ccccc2c1/C=N/Nc1nc(Nc2ccc(F)cc2)nc(N2CCOCC2)n1` the figure was > 80 µM (inactive); with `CCN(CC(=O)Nc1c(F)cccc1F)C(=O)C1(c2ccccc2)CC1`, > 80 µM (inactive); with `CC(C)(C)c1ccc(-c2cc(N)n[nH]2)cc1`, > 80 µM (inactive).
To `CCN(CC)CCCN=Cc1c(-c2ccccc2)[nH]n(-c2nc3ccccc3s2)c1=O` belongs > 80 µM (inactive).
For `CCCCOc1ccc(NC(=O)C(=O)NCCCn2ccnc2)cc1`, the IC50 was 44.6 µM (inactive).
For the compound `O=S(=O)(c1cnc(Cl)c(Cl)c1)N1CCCc2ccccc21`, the IC50 was > 80 µM (inactive).
With `CCOc1ccc(-c2noc(CCC(=O)O)n2)cc1`, the half-inhibitory concentration (IC50) is 8.98 µM.
To `O=C(Nc1ccc(NC(=O)c2cc3ccccc3o2)cc1)c1ccc2c(c1)OCCO2` belongs > 80 µM (inactive); to `C=C(C)[C@@H]1CCC2(C(=O)O)CC[C@]3(C)[C@H](CC[C@@H]4[C@@]5(C)CCC(=O)C(C)(C)[C@@H]5CC[C@]43C)[C@@H]12` (stereo partly specified), 3.31 µM.
As to `CC1CCC/C=C/C2CC(O)CC2C(O)/C=C/C(=O)O1` (stereo unspecified), the IC50 was 0.53 µM.
With `O=C(CCCN1C(=O)S/C(=C\C=C\c2ccccc2)C1=O)Nc1ccc(O)cc1` the figure was > 80 µM (inactive); with `CCc1ccc(/C=C2\SC(=S)N(CCC(=O)NC3=NCCS3)C2=O)cc1`, > 80 µM (inactive).
With `Cn1c(=O)cc(OCCCC(=O)NC2CCCC2)c2ccccc21` the figure was 46 µM (inactive); with `COc1ccc(NS(=O)(=O)c2ccc(-c3coc(C)n3)cc2)cc1OC`, 0.66 µM; with `CCOc1ccc(-c2nc(CSCC(=O)NCc3ccco3)c(C)o2)cc1`, 18.9 µM.
Turning to `O=C(CCl)N(c1ccc(Cl)cc1)c1c[nH]c2ccccc12`, the IC50 was 10.8 µM.
To `CCOc1ccc(/C=C2\SC(=S)N(CCC(=O)Nc3ccc(C(=O)O)cc3)C2=O)cc1` belongs > 80 µM (inactive); to `OCCN1CCN(C(=S)c2ccc(-c3ccccc3)cc2)CC1`, 31.6 µM (inactive).
To `COc1cccc(/C=C2\SC(=S)N(CCCC(=O)NC3=NCCS3)C2=O)c1` belongs 69.1 µM (inactive); to `CCOC(=O)N1CCN(c2ncnc3c2[nH]c2ccc(OC)cc23)CC1`, 20.1 µM (inactive).
To `O=C(CCl)Nc1ccccc1Sc1ccccc1` belongs 37.8 µM (inactive); to `COc1ccc(-c2nn(C)c(=O)c3ccccc23)cc1NS(C)(=O)=O`, 43.9 µM (inactive); to `CC(C)(O)/C=C/C(=O)[C@](C)(O)C1[C@H](O)C[C@@]2(C)C3CC=C4C(C[C@H](O)[C@@H](O)C4(C)C)[C@]3(C)C(=O)C[C@]12C` (stereo partly specified), 65.8 µM (inactive).
Regarding `CCN(CC)c1ccc(/C=C2/C(=O)ON=C2C)cc1`, the IC50 was > 80 µM (inactive).
For the compound `CCCNC(=O)CSCc1nc(-c2ccc(SC)cc2)oc1C`, the IC50 was 38.5 µM (inactive).
Take `COc1cc(OC)c(/C=N/NC(N)=S)cc1Br`: the IC50 was > 80 µM (inactive).
Turning to `CCC(C)[C@H](N)c1nnc(SCC(=O)c2ccc(Cl)cc2)o1` (stereo partly specified), the IC50 is > 80 µM (inactive).
Take `CCOc1ccc(-c2nc(CSCC(=O)NC3CC3)c(C)o2)cc1`: the IC50 is > 80 µM (inactive).
As to `COC(=O)c1cc(NC(=O)Nc2cc(OC)ccc2OC)cc(C(=O)OC)c1`, the IC50 was > 80 µM (inactive).
Turning to `Cc1ccc(/C=C2\SC(=S)N(CCC(=O)NNC(=O)c3ccncc3)C2=O)cc1`, the IC50 was > 80 µM (inactive).
With `Cc1ccc(-c2cc(C(=O)NCCCN3CCOCC3)no2)cc1`, the IC50 is > 80 µM (inactive).
With `COc1ccc(C(=O)N/N=C/c2sc(N3CCOCC3)nc2-c2ccccc2)cc1OC` the figure was 14 µM.
Turning to `COc1ccc(-c2ccoc2)cc1[C@H]1[C@H]2C=CC[C@@H](C)[C@@H]2C(=O)N1Cc1ccccc1`, the half-maximal inhibitory concentration (IC50) was 10.5 µM.
To `Cc1nc2cc(-c3cccc(F)c3)nn2c(C)c1CCC(=O)NC(C)CCc1ccco1` (stereo unspecified) belongs 11.4 µM; to `Cc1ccc(C2(c3ccc(C)cc3)CC2C(=O)Nc2ccc([N+](=O)[O-])cc2O)cc1` (stereo unspecified), 4.59 µM; to `Cn1c(=O)n(C)c2cc(NS(=O)(=O)c3ccccc3)ccc21`, 59.3 µM (inactive).
With `O=C(Nc1cccc(S(=O)(=O)Nc2ccc(Cl)cc2)c1)c1ccc(Cl)nc1` the figure was 0.79 µM; with `CCC(CO)Oc1cc(NCc2ccccc2O)c2ncn(C(C)C)c2c1` (stereo unspecified), 4.79 µM; with `Cc1nc2cc(-c3ccccc3)nn2c(C)c1CCC(=O)NCc1ccco1`, > 80 µM (inactive).
For the compound `Cc1ccc(-c2nn3c(C)nnc3c3ccccc23)cc1S(=O)(=O)NC(C)(C)CO`, the IC50 is 27.6 µM (inactive).
Take `C#CCN(Cc1ccccc1)S(=O)(=O)C=C`: the IC50 was 51.3 µM (inactive).
With `CCNc1nc(C)c2cc(Br)c(=O)n(CC)c2n1`, the IC50 is > 80 µM (inactive).
Turning to `COC(=O)CSc1nnc(-c2sc3ccccc3c2Cl)o1`, the 50% inhibitory concentration (IC50) was 7.24 µM.
To `O=C(CCCN1C(=O)/C(=C/c2ccccc2Cl)SC1=S)NNC(=O)c1ccccc1Cl` belongs 20 µM.
Consider `COc1cc(-c2nc3n(n2)C(c2ccc(F)cc2)C2=C(CCCC2=O)N3)cc(OC)c1OC` (stereo unspecified), for which the IC50 was 30.4 µM (inactive).
With `COC(=O)c1c(-c2ccc(N(C)C)cc2)sc2ccc(OC)cc12` the figure was > 80 µM (inactive); with `COc1ccccc1/C=C1/SC(=S)N(CCC(=O)Nc2cccnc2)C1=O`, 37 µM (inactive).
To `COc1ccc(-c2ccc(N(C)C)cc2)cc1[C@H]1[C@H]2C=CC[C@@H](C)[C@@H]2C(=O)N1Cc1ccccc1` belongs > 80 µM (inactive); to `O=C(CCCN1C(=O)/C(=C/c2ccccc2Cl)SC1=S)Nc1cccnc1`, 28.7 µM (inactive); to `CCc1ccc(/C=C2/SC(=S)N(CCC(=O)Nc3cccnc3)C2=O)cc1`, > 80 µM (inactive).
To `Cc1cc(=O)[nH]c2c(C)cc(S(=O)(=O)N3CCCCC3)cc12` belongs > 80 µM (inactive); to `Cc1ccc(CSc2nnc(SCC(=O)N/N=C/C=C/c3ccccc3[N+](=O)[O-])s2)cc1`, 34.8 µM (inactive).
On to `O=C(CCCN1C(=O)/C(=C/c2ccccc2Cl)SC1=S)Nc1ccccn1`, for which the IC50 is 23.7 µM (inactive).
To `COc1ccc(NC(=O)c2nnn(Cc3cccc(F)c3)c2N)c(OC)c1` belongs > 80 µM (inactive); to `Cn1nnnc1Sc1ncnc2scc(Br)c12`, 4.26 µM; to `CC(C)(C)c1ccc(-n2ncc3c2CCCC3NC(=O)C2(C(N)=O)CC2)cc1` (stereo unspecified), 0.34 µM.
On to `COc1ccc(/C=C2/SC(=S)N(CCCC(=O)Nc3ccc(O)cc3)C2=O)cc1`, for which the IC50 is > 80 µM (inactive).
Consider `CCOc1ccc(-c2cc(CCCC(=O)NCCCOC)no2)cc1`, for which the IC50 was 60 µM (inactive).
As to `Cc1ccc(/C=C2\SC(=S)N(CCCC(=O)Nc3cc(C)on3)C2=O)cc1`, the IC50 is > 80 µM (inactive).
To `CCOc1ccc(NC(=O)CCCc2cc(-c3ccc(OCC)cc3)on2)cc1` belongs > 80 µM (inactive); to `COC(=O)C(C)Oc1cc(C)cc2oc(=O)c3c(c12)CCC3` (stereo unspecified), 28.6 µM (inactive); to `CCn1c(=O)cc(OCC(=O)Nc2ccc(OC)c(OC)c2)c2ccccc21`, 70.3 µM (inactive).
As to `CC(=C/c1ccco1)/C=N/NC(=O)CSc1nnc(SCc2ccc(C)cc2)s1`, the IC50 was > 80 µM (inactive).
With `COC(=O)c1c(NC(=O)c2cccc([N+](=O)[O-])c2)sc(C(N)=O)c1C` the figure was > 80 µM (inactive).
Turning to `Cc1nc(Nc2c(Cl)cccc2Cl)sc1C(=O)Nc1ccccc1`, the IC50 was 33 µM (inactive).
To `Cc1ccc(C(=O)C[n+]2cc(-c3ccc(C)cc3)n3c2CCCCC3)cc1` belongs 4.44 µM; to `CCOC(=O)C(=CNc1cc(C)ccc1C)C(=O)OCC`, 18.9 µM.
On to `CC(C)c1[nH]nc2c1C(c1ccco1)C(C#N)=C(N)O2` (stereo unspecified), for which the IC50 was > 80 µM (inactive).
To `CC(=O)c1cccc(S(=O)(=O)Nc2cc(C(F)(F)F)ccc2N2CCOCC2)c1` belongs > 80 µM (inactive).
